Earlier results, collected in patent US12678449B2, “Compositions including cannabis and avocado/soybean unsaponifiables and methods of use” (Nutramax Laboratories, Inc., priority 2019, dated 2026).
Read-outs that look alike come from different tables or passages of the source.

Columns and labels:
[1] = beagle dogs, oral, single dose
[2] = human

## C=C(C)[C@@H]1CCC(C)=C[C@H]1c1c(O)cc(CCCCC)cc1O [CBD, 2-[(1R,6R)-3-methyl-6-prop-1-en-2-ylcyclohex-2-en-1-yl]-5-pentylbenzene-1,3-diol]
[1]; 2 mg/kg CBD in olive oil
  median maximal concentration of CBD in serum: 102.3 ng/mL
[1]; 8 mg/kg CBD in olive oil
  median maximal concentration of CBD in serum: 590.8 ng/mL
[2]; 10 mg dose of CBD (Guy et al.)
  CMAX: 2.47 ng/mL
[2]; 1 h after oral intake of 5.4 mg dose (Nadulski et al.)
  mean plasma concentration of CBD: 0.95 ng/mL
[2]; oral administration of 40 mg of CBD (Agurell et al.)
  mean plasma level of CBD: 5.5 ng/mL
